Earlier results as cited in PMC8236845.
Like-named read-outs stand apart in the source and are kept apart here. Numbered stars: 1 amine (or outer) side, 2 acyl side, 3 side chain; on linkers, the order of the positions; unused ones are H or OH. Bridge positions count the residues as written; N and C are the ends. Square brackets hold non-standard residues; d marks the D form. Peptide text beside a SMILES is read from it. * marks the point of attachment. pTerphenylCO(4''-OnC5H11) = CCCCCOc1ccc(-c2ccc(-c3ccc(C(=O)*)cc3)cc2)cc1; Orn(4R-OH,5R-OH) = O=C([C@H](C[C@@H](O)[C@@H](O)N[*:3])N[*:1])[*:2]; hTyr(3S-OH,4S-OH) = N[C@H](C(=O)O)[C@H](O)[C@@H](O)c1ccc(O)cc1; Pro(3S-OH,4S-Me) = C[C@H]1CN[C@H](C(=O)O)[C@H]1O; Hyp = O=C(O)[C@@H]1C[C@@H](O)CN1

Assays:
[1] = human, in vivo, cited from earlier work
SARS-CoV-2 = settings: 2021, cited from earlier work
SARS-CoV-1 = settings: cited from earlier work
[2] = tested on: Middle Eastern Respiratory Syndroms (MERS) coronaviruses; settings: cited from earlier work
[3] = tested on: SARS-CoV-2-related Pangolin corona virus; settings: cited from earlier work
[4] = cited from earlier work
[5] = used in the context of chemotherapy, cited from earlier work
[6] = DOGS topical 24 mg/kg, ref Sarasola et al. (2002)

Compound: CCCCCOc1ccc(-c2ccc(-c3ccc(C(=O)N[C@H]4C[C@@H](O)[C@@H](O)NC(=O)[C@@H]5[C@@H](O)[C@@H](C)CN5C(=O)[C@H]([C@@H](C)O)NC(=O)[C@H]([C@H](O)[C@@H](O)c5ccc(O)cc5)NC(=O)[C@@H]5C[C@@H](O)CN5C(=O)[C@H]([C@@H](C)O)NC4=O)cc3)cc2)cc1 [Anidulafungin] ({pTerphenylCO(4''-OnC5H11)}-[Orn(4R-OH,5R-OH)]T[Hyp][hTyr(3S-OH,4S-OH)]T[Pro(3S-OH,4S-Me)]; lactam 1-C)
- C max (ng/ml) ([1]; iv): 2,500 ng/ml
- Cmax ([1]; iv): 2200 nM

Compound: Cc1cn(-c2cc(NC(=O)c3ccc(C)c(Nc4nccc(-c5cccnc5)n4)c3)cc(C(F)(F)F)c2)cn1 [Nilotinib AMN-107, Nilotinib]
- C max (ng/ml) ([1]; po, 300 mg): 1,360 ng/ml
- Cmax ([1]; po, 300 mg): 2570 nM
- IC50 (SARS-CoV-2; ref Cagno et al., read-out: IC50 of inhibition of SARS-CoV-2 infection in vitro): 1500 to 3000 nM

Compound: Cc1ccc(NC(=O)c2ccc(CN3CCN(C)CC3)cc2)cc1Nc1nccc(-c2cccnc2)n1 [Imatinib]
- inhibition of SARS-CoV-1 (SARS-CoV-1): reported to inhibit
- inhibition of MERS coronavirus [2]: reported to inhibit
- inhibition of SARS-CoV-2 in cell-culture-based studies (SARS-CoV-2; ref Cagno et al.): failed to inhibit

Compound: CO[C@H]1C[C@H](O[C@@H]2/C(C)=C/C[C@@H]3C[C@@H](C[C@]4(CC[C@H](C)[C@@H](C5CCCCC5)O4)O3)OC(=O)[C@@H]3C=C(C)/C(=N/O)[C@H]4OC/C(=C\C=C\[C@@H]2C)[C@]43O)O[C@@H](C)[C@@H]1O [Selamectin]
- inhibition of cytopathic effect [3]: inhibited the cytopathic effect
- Cmax ([4]; DOGS oral 24 mg/kg, ref Sarasola et al. (2002)): 9900 nM
- C max [4, 6]: 86.5 ng/mL
- Cmax [4, 6]: 110 nM
- tolerability ([4]; oral, dogs, ref Sarasola et al., 2002): well tolerated

Compound: Cc1nc(Nc2ncc(C(=O)Nc3c(C)cccc3Cl)s2)cc(N2CCN(CCO)CC2)n1 [Dasatinib]
- inhibition of SARS-CoV-1 (SARS-CoV-1): reported to inhibit
- inhibition of MERS coronavirus [2]: reported to inhibit
- inhibition of SARS-CoV-2 in cell-culture-based studies (SARS-CoV-2; ref Cagno et al.): failed to inhibit

Compound: CC[C@H](C)[C@@H]1NC(=O)[C@H](Cc2ccc(O)cc2)NC(=O)[C@@H](N)CSSC[C@@H](C(=O)N2CCC[C@H]2C(=O)N[C@@H](CC(C)C)C(=O)NCC(N)=O)NC(=O)[C@H](CC(N)=O)NC(=O)[C@H](CCC(N)=O)NC1=O [Oxytocin]
- C max ([1]; inhaled or intranasal, 44 ug): 0.005 ng/mL
- Cmax ([1]; inhaled or intranasal, 44 ug): 5 nM
- C max ([1]; iv): 0.005 ng/mL
- Cmax ([1]; iv): 5 nM

Compound: C[C@]12CC[C@@H]3c4ccc(OC(=O)c5ccccc5)cc4CC[C@H]3[C@@H]1CC[C@@H]2O [Estradiol benzoate]
- C max ([1]; im, 5 mg): 0.75 ng/mL
- Cmax ([1]; im, 5 mg): 2 nM
- inhibition of SARS-COV-2 replication in culture (SARS-CoV-2; ref Yang et al.): reported to inhibit

Compound: COc1cc([C@@H]2c3cc4c(cc3[C@H](O)[C@H]3COC(=O)[C@@H]23)OCO4)cc(OC)c1OC [Picropodophyllin]
- side effects ([5]; ref Ekman et al., 2016): moderate to severe side effects
- C max (ng/ml) ([1]; po, 520 mg): 207–1,035 ng/ml
- Cmax ([1]; po, 520 mg): 500 to 2500 nM

Compound: CC(=O)O[C@@]12CO[C@@H]1C[C@H](O)[C@@]1(C)C(=O)[C@H](O)C3=C(C)[C@@H](OC(=O)[C@H](O)[C@@H](NC(=O)OC(C)(C)C)c4ccccc4)C[C@@](O)([C@@H](OC(=O)c4ccccc4)[C@H]21)C3(C)C [Docetaxel]
- side effects ([5]; ref Gustafson et al., 2003): moderate to severe side effects
- C max ([1]; iv): 933 ng/mL
- Cmax ([1]; iv): 1230 nM
